# How the values were obtained:
# [1] = tested on: greenhouse red spider mite (Tetranychus urticae); assay: Tetranychus test (OP-resistant/dip treatment); type: in vivo; conditions: 1000 ppm, infested bean plants (Phaseolus vulgaris) dipped, OP-resistant mites
# Procedure: Tetranychus Test (OP Resistant/Dip Treatment)
# To produce a suitable preparation of active compound, 1 part by weight of active compound is mixed with the stated amount of solvent and the stated amount of emulsifier, and the concentrate is diluted with emulsifier-containing water to the desired concentration.
# Bean plants (Phaseolus vulgaris) which are heavily infested by all stages of the greenhouse red spider mite (Tetranychus urticae) are dipped into a solution of the active compound at the desired concentration.
# After the desired period of time, the effect in % in determined. 100% means that all spider mites have been killed; 0% means that none of the spider mites have been killed.
# Myzus persicae = assay: Myzus test; type: in vivo; conditions: 100 ppm, infested cabbage leaves (Brassica oleracea) dipped
# Procedure: (§1) To produce a suitable preparation of active compound, 1 part by weight of active compound is mixed with the stated amounts of solvent and of emulsifier, and the concentrate is diluted with emulsifier—containing water to the desired concentration.
# Cabbage leaves (Brassica oleracea) which are heavily infested by Myzus persicae are dipped into a preparation of active compound of the desired concentration.
# After the desired period of time, the kill in % is determined. 100% means that all aphids have been killed; (0)% means that none of the aphids nave been killed.
# [2] = tested on: larvae of Phaedon cochleariae; assay: Phaedon larvae test; type: in vivo; conditions: 1000 ppm, cabbage leaves (Brassica oleracea) dipped, infested with larvae
# Procedure: as §1
# Cabbage leaves (Brassica oleracea) are treated by being dipped into the preparation of active compound of the desired concentration and are infested with larvae of Phaedon cochleariae while the leaves are still moist.
# After the desired period of time, the kill in % is determined. 100% means that all beetle larvae have been killed; 0% means that no beetle larvae have been killed.
# Meloidogyne incognita = Meloidogyne incognita test; type: in vivo; conditions: 20 ppm; sand with egg-larvae suspension and lettuce seeds; nematocidal activity from gall formation, 100% = no galls
# Procedure: To produce a suitable preparation of active compound, 1 part by weight of active compound is mixed with the stated amounts of solvent and of emulsifier, and the concentrate is diluted with water to the desired concentration.
# Containers are filled with sand, preparation of active compound, a suspension of egg-larvae of Meloidogyne incognita and with lettuce seeds. The lettuce seeds germinate and the plants are allowed to grow. Galls are formed on the roots.
# After the desird period of time, the nematocidal activity is determined on basis of the formation of galls and is calculated in %.
# An activity of 100% means that no galls have been found, an activity of 0% means that the number of the galls at the treated plants corresponds to the number of galls in the untreated control plants.
# [3] = tested on: Erysiphe graminis f. sp.hordei; assay: Erysiphe test (barley)/induction of resistance; type: in vivo; conditions: young barley plants sprayed at 750 g/ha; inoculated 4 days after treatment; evaluated 7 days after inoculation; 100% = no disease
# Procedure: Erysiphe Test (Barley)/Induction of Resistance
# To produce a suitable preparation of active compound, 1 part by weight of active compound is mixed with the stated amount of solvent, and the concentrate is diluted with water and the stated amount of emulsifier to the desired concentration.
# To test for resistance-inducing activity, young barley plants are sprayed with the preparation of active compound at the stated rate of application. 4 days after the treatment, the plants are inoculated with an aqueous spore suspension of Erysiphe graminis f. sp.hordei. The plants are subsequently placed in a greenhouse at 70% relative atmospheric humidity and 18° C.
# The test is evaluated 7 days after the inoculation. 0% means an efficacy which corresponds to that of the control while an efficacy of 100% means that no disease is observed.
# [4] = tested on: green rice leaf hopper (Nephotettix cincticeps); assay: Nephotettix test; type: in vivo; conditions: 1000 ppm, rice seedlings (Oryza sativa) dipped, infested with larvae
# Procedure: To produce a suitable preparation of active compound, 1 part by weight of active compound is mixed with the stated amount of solvent and the stated amount of emulsifier, and the concentrate is diluted with water to the desired concentration.
# Rice seedlings (Oryza sativa) are treated by being dipped into the preparation of active compound of the desired concentration and are infested with larvae of the green rice leaf hopper (Nephotettix cincticeps) while the seedlings are still moist.
# After the desired period of time, the kill in % is detemruned. 100% means that all leaf hoppers have been killed; 0% means that none of the leaf hoppers have been killed.
Structure (SMILES),Efficacy in % [3],further results
COC(=O)C1C2C=CC(O2)C1C(=O)OC (centres unmarked),–,kill in % after 7 days [1]: 90%
O=C(O)C1C2C=CC(O2)C1C(=O)O (centres unmarked),–,Kill in % after 6 days (Myzus persicae): 80%
O=C(O)C1C2CCC(O2)C1C(=O)O (centres unmarked),–,kill in % after 7 days [2]: 100%
CC(CNC(=O)C1C2CCC(O2)C1C(=O)O)c1ccccc1 (centres unmarked),–,kill in % (Meloidogyne incognita): 100%
Cc1cc(C)c(NC(=O)C2C3CCC(C)(O3)C2C(=O)O)c(C)c1 (centres unmarked),–,melting point: 168 °C
O=C(O)C1C2C=CC(O2)C1C(=O)NCCCc1ccccc1 (centres unmarked),70%,–
O=C(O)C1C2C=CC(O2)C1C(=O)Nc1cccc(Cl)c1 (centres unmarked),70%,–
O=C(O)C1C2C=CC(O2)C1C(=O)NCc1cc(Cl)nc(Cl)c1 (centres unmarked),70%,–
CC(C)(CNC(=O)C1C2C=CC(O2)C1C(=O)O)n1cncn1 (centres unmarked),70%,–
COc1ccccc1NC(=O)C1C2CCC(O2)C1C(=O)O (centres unmarked),70%,–
O=C(O)C1C2CCC(O2)C1C(=O)NCCc1ccccc1 (centres unmarked),90%,–
CC(Cc1ccccc1)NC(=O)C1C2CCC(O2)C1C(=O)O (centres unmarked),80%,–
CCOC(=O)C1C2C=CC(O2)C1C(=O)Sc1ccccc1NC(N)=O (centres unmarked),–,Kill in % after 6 days [4]: 100%
O=C(O)[C@@H]1C2CCC(O2)[C@@H]1C(=O)O,–,Kill in % after 6 days [4]: 100%
